The values below come from patent publication US20060270614A1, “Use of chalcones for the treatment of viral disorders” (priority 2005, published 2006).

In the experiment the test system is HSV-1. The experiment can be described thus: HSV-1 assay: CPE inhibition in Vero cells, MTS dye uptake. In kind it is cell-based, herpes simplex virus-1. The note with it: read-out: IC50 (inhibitory concentration at which the compound provides 50% CPE reduction). The procedure:
In vitro evaluation of anti-viral activity can be determined by plaque reduction as reported in J. Nat. Prod. (1990) 53, 340-344; or as described in Example 1. To pre-grown Vero cells (ATCC CCL-81 is added a virus suspension (ATCC VR-260) mixed with complete medium containing various concentrations of the test compound and the mixture is incubated until maximum cytopathic effect (CPE) is observed in the untreated virus control culture. The CPE inhibition is determined by adding a dye (MTS, (3-[4,5-dimethylthiazol-2-yl-5]-[3-carboxymethyoxyphenyl]-2-[4-sulfophenyl]-2H tetrazolium)) uptake procedure (Promega's Cell Titer Aqueous One Solution). This method measures cell viability and is based on the reduction of the tetrazolium-based MTS by mitochondrial enzymes of viable host cells to MTS formazan. The purple color of the MTS formazan is then measured spectrophotometrically. The optical density (OD) value of each culture is a function of the amount of formazan produced which is proportional to the number of viable cells.
Vero cells (ATCC CCL-81) are pregrown in 96-well tissue culture plates using Dulbecco's Modified Eagle's Medium (DMEM) supplemented with 10% heat-inactivated fetal bovine serum (FBS), L-Glutamine, penicillin, and streptomycin.
To each of the replicate cell cultures is added 50 μL of the test article solution and 50 μL of virus suspension (ATCC VR-260). The multiplicity of infection used is about 0.05 plaque-forming unit (PFU) per cell. Cell controls containing medium alone, virus-infected controls containing medium and virus, drug cytotoxicity controls containing medium and each drug concentration, reagent controls containing culture medium only (no cells), and the test article colorimetric controls containing the test article and medium (no cells) are run simultaneously with the test samples. The plates are incubated at 37° C. in a humidified atmosphere containing 5% CO2 until maximum CPE (cytopathic effect) is observed in the untreated virus control cultures (Day 5).
CPE inhibition is determined by a dye (MTS) uptake procedure (Promega's Cell Titer Aqueous One Solution). This method measures cell viability and is based on the reduction of the tetrazolium-based MTS by mitochondrial enzymes of viable host cells to MTS formazan. MTS (10 μl) is added to each of the plate wells. The plates are incubated at 37° C. for 4 hours. The purple color of the MTS formazan is then measured spectrophotometrically at 490/650 nm. The optical density (OD) value of each culture is a function of the amount of formazan produced which is proportional to the number of viable cells.
The percent of CPE (cytopathic effect) reduction of the virus-infected wells (antiviral efficacy) and the percent cell viability of uninfected drug control wells (cytotoxicity) are calculated. […]

[1] abbreviates: Human alphaherpesvirus 1, 120 h, Vero cells (ATCC CCL-81), virus ATCC VR-260, about 0.05 PFU per cell, Day 5, MTS.

SMILES strings stand for the structures. Where two headings read alike, the source gives them in different places.

Regarding `O=C(/C=C/c1ccc(O)c(O)c1)c1ccc(O)cc1O` [2′,3,4,4′-Tetrahydroxychalcone], under setting [1], the IC50 turned out to be 26.6 µM.

Regarding `COc1ccc(/C=C/C(=O)c2ccc(O)cc2O)cc1OC` [2′,4′-Dihydroxy-3,4-dimethoxychalcone], the IC50 (Human alphaherpesvirus 1, Vero, 120 h) was 8.36 µM.

As to `COc1ccc(/C=C/C(=O)c2ccc(O)cc2O)cc1` [2′,4′-Dihydroxy-4-methoxychalcone], under setting [1], the IC50 worked out at 11.1 µM.

Consider `O=C1/C(=C/c2ccc(O)c(O)c2)Oc2cc(O)ccc21` [(Z)-2-(3,4-Dihydroxybenzylidene)-6-hydroxybenzofuran-3(2H)-one, reference compound], for which the IC50 under setting [1] is greater than 100 µM.
